Experimental data taken from patent publication US6090955A (priority 1994, dated 2000).

Key:
[1] = cited from earlier work
P388 leukemia = details: implanted P388 leukemia; cited from earlier work
P388 cells = details: in vitro, free vs liposome-encapsulated vs nanoparticular taxol; cited from earlier work
P388 = details: 12.5 mg/kg/4 days; free vs liposomal; cited from earlier work
microtubuli = details: cited from earlier work
B16 melanoma = details: implanted B16 melanoma; cited from earlier work
[2] = Tolerability in MaTu-bearing nude mice (toxic deaths, body weight change, hemotoxicity); format: in vivo, Ncr:nu/nu female mice; details: i.p., 12.5 mg/kg/inj., treatment d 10-13
Excerpt: |Animals: Ncr:nu/nu female

human glioblastoma = details: 12.5 mg/kg/4 days; cited from earlier work
[3] = dilution of Cremophor/alcohol solutions with physiological salt solution; cited from earlier work
human breast tumors = details: cited from earlier work

Row | Compound | toxicities observed in man [1] | antineoplastic activity (P388 leukemia) | growth inhibition of P388 cells (P388 cells) | therapeutic effectiveness on P388 in vivo (P388) | depolymerization of microtubuli (microtubuli) | arrangement and bundling of microtubuli (microtubuli; during the whole of the cell cycle) | polymerization of microtubuli (microtubuli; from tubuli dimers) | antineoplastic activity (B16 melanoma) | BWC (%) d10-13 [2] [%] | Toxic deaths (d): day of death ([2]; 8 nude mice) [days] | Toxic deaths (d): number ([2]; 8 nude mice) | decrease in tumor growth (human glioblastoma) | stability in physiological salt solution [3] | antineoplastic activity (human breast tumors)
1 | polyethoxylated castor oil [Cremophor] | increased formation of chylomicrons |  |  |  |  |  |  |  |  |  |  |  |  | 
2 | CC(=O)O[C@H]1C(=O)[C@@]2(C)[C@H]([C@H](OC(=O)c3ccccc3)[C@]3(O)C[C@H](OC(=O)[C@H](O)[C@@H](NC(=O)c4ccccc4)c4ccccc4)C(C)=C1C3(C)C)[C@]1(OC(C)=O)CO[C@@H]1C[C@@H]2O [Taxol] |  | clear antineoplastic activity | inhibited equally by all three forms of the drug | comparable in their therapeutic effectiveness | stabilizes the microtubuli by inhibiting their depolymerization | abnormal arrangement and bundling of microtubuli | promotes the polymerization of microtubuli | clear antineoplastic activity | -1 | 16 | 1 | significant decrease in tumor growth | not more than 24 hours | clear antineoplastic activity
